# Reference: patent US20120157494A1, “ISOINDOLYL COMPOUNDS” (priority 2010, published 2012)
# Columns and labels:
# [1] = molecular target: T1, hP2X7 (Homo sapiens, UniProt Q99572); test: Intracellular Calcium Flux (FLIPR) Assay; format: cell-based; conditions: 1321N1 cells stably expressing human P2X7; agonist 100 μM BzATP; 20 min equilibration with antagonist; read-out: FLIPR pIC50 hP2X7-1321n1 (converted)
# T1 construct: 1321N1 cells stably expressing the full length human P2X7 gene (1321N1-hP2X7); expressed in transfected cells
# T1 sequence (Q99572 1-595): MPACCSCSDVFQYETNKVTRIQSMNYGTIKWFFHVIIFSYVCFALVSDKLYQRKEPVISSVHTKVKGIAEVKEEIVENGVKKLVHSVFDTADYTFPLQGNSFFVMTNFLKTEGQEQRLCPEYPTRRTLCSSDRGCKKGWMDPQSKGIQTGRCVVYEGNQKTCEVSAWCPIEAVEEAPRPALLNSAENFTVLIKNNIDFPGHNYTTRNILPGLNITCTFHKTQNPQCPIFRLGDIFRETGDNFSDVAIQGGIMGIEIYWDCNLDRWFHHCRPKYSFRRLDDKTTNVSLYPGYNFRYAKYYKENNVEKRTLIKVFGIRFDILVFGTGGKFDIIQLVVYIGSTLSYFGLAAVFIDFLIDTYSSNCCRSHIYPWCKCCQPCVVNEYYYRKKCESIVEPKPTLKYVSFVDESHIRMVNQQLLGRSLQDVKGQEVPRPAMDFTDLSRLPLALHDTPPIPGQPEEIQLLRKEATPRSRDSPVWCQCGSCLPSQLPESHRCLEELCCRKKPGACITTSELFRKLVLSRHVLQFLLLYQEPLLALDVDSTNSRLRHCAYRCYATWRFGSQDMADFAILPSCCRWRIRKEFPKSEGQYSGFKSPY
# Description: Stock solutions of compounds were prepared from powders as a 10 mM DMSO stock solution. These solutions were stored at RT during the two week period of these experiments to prevent freeze-thaw of the DMSO stocks. The DMSO stocks were added to the appropriate assay buffer at a concentration of 10 μM, and then diluted serially to the final concentrations that were tested. No observable precipitate was formed at any time during this process. The aqueous solutions of compounds as well as ATP (Sigma A7699) and BzATP (Sigma B6396) were prepared fresh for each day of experiment.
# 1321N1 cells stably expressing the full length human P2X7 gene (1321N1-hP2X7) and HEK293 cells stably expressing the full length rat P2X7 gene (HEK293-rP2X7) were obtained from the Roche Cell Culture Facility. 1321N1-hP2X7 cells were grown in Dulbecco's Modified Eagle's Medium (DMEM) high glucose supplemented with 10% FBS and 250 μg/mL G418. HEK293-rP2X7 cells were grown in DMEM/F-12 supplemented with 10% FBS, 1 mM CaCl2, 2 mM MgCl2, 2 mM L-Glutamine and 500 μg/ml G418. Cells were split such that they never became >70% confluent.
# On the day prior to the experiment, 1321N1-hP2X7 or HEK293-rP2X7 cells were released into suspension with calcium-free PBS+Versene and washed by centrifugation with calcium-free PBS to remove the Versene. Cells were resuspended in growth medium at a density of 2.5×10^5 cells/mL and seeded into black walled, clear bottom 96 well plates (50,000 cells/well) approximately 18 hr prior to intracellular calcium flux experiments.
# On the day of the experiment, plates were washed with FLIPR buffer (calcium- and magnesium-free Hank's Balanced Salt Solution (HBSS) supplemented with 10 mM Hepes, 2.5 mM probenecid and 2 mM calcium chloride) using a BIO-TEK 96 channel plate washer and incubated with […] fluo-3 dye at 37° C. for one hr. The dye was then removed by plate washing and the cells were allowed to equilibrate for 20 min at room temperature with antagonist or vehicle (FLIPR buffer). Agonist (100 μM BzATP final concentration for hP2X7; 5 μM BzATP final concentration or rP2X7) was added online with the FLIPR and fluorescence measurements made at 1 sec intervals for 60 sec followed by 3 sec intervals for a further 4 min (5 min total). A final addition of 5 μM ionomycin was made and the maximal BzATP-evoked fluorescence normalized to the maximal ionomycin-evoked fluorescence.
IC50 [1] [µM],melting point [°C],Compound
0.155,,"COc1ccccc1CNC(=O)C1CCCN(c2cccc3c2C(=O)N(Cc2ccncc2)C3=O)C1 (centres unmarked) [Compound I-1a, 1-(1,3-Dioxo-2-pyridin-4-ylmethyl-2,3-dihydro-1H-isoindol-4-yl)-piperidine-3-carboxylic acid 2-methoxy-benzylamide]"
0.055,,"COc1ccccc1CNC(=O)[C@@H]1CCCN(c2cccc3c2C(=O)N(Cc2ccncc2)C3=O)C1 [Compound I-1b, (R)-1-(1,3-Dioxo-2-pyridin-4-ylmethyl-2,3-dihydro-1H-isoindol-4-yl)-piperidine-3-carboxylic acid 2-methoxy-benzylamide]"
0.724,,"COc1ccccc1NC(=O)[C@@H]1CCCN(c2cccc3c2C(=O)N(Cc2ccncc2)C3=O)C1 [Compound I-4, (R)-1-(1,3-Dioxo-2-pyridin-4-ylmethyl-2,3-dihydro-1H-isoindol-4-yl)-piperidine-3-carboxylic acid (2-methoxy-phenyl)-amide]"
0.355,,"COc1ccccc1CNC(=O)[C@@H]1CCCN(c2cccc3c2C(=O)N(CC2CCOCC2)C3=O)C1 [Compound I-5, (R)-1-[1,3-Dioxo-2-(tetrahydro-pyran-4-ylmethyl)-2,3-dihydro-1H-isoindol-4-yl]-piperidine-3-carboxylic acid 2-methoxy-benzylamide]"
0.851,197 to 198,"O=C(NCc1ccccc1OC(F)(F)F)[C@@H]1CCCN(c2cccc3c2C(=O)N(Cc2ccncc2)C3=O)C1 [Compound I-7, (R)-1-(1,3-Dioxo-2-pyridin-4-ylmethyl-2,3-dihydro-1H-isoindol-4-yl)-piperidine-3-carboxylic acid 2-trifluoromethoxy-benzylamide]"
0.182,199 to 200,"COc1cccc(CNC(=O)[C@@H]2CCCN(c3cccc4c3C(=O)N(Cc3ccncc3)C4=O)C2)c1OC [Compound I-10, (R)-1-(1,3-Dioxo-2-pyridin-4-ylmethyl-2,3-dihydro-1H-isoindol-4-yl)-piperidine-3-carboxylic acid 2,3-dimethoxy-benzylamide]"
0.1,181 to 182,"O=C(NCc1ccccc1O)[C@@H]1CCCN(c2cccc3c2C(=O)N(Cc2ccncc2)C3=O)C1 [Compound I-11, (R)-1-(1,3-Dioxo-2-pyridin-4-ylmethyl-2,3-dihydro-1H-isoindol-4-yl)-piperidine-3-carboxylic acid 2-hydroxy-benzylamide]"
0.0309,,"CSc1ccccc1CNC(=O)[C@@H]1CCCN(c2cccc3c2C(=O)N(Cc2ccncc2)C3=O)C1 [Compound I-12, (R)-1-(1,3-Dioxo-2-pyridin-4-ylmethyl-2,3-dihydro-1H-isoindol-4-yl)-piperidine-3-carboxylic acid 2-methylsulfanyl-benzylamide]"
0.11,196 to 197,"O=C(NCc1ccccc1F)[C@@H]1CCCN(c2cccc3c2C(=O)N(Cc2ccncc2)C3=O)C1 [Compound I-13, (R)-1-(1,3-Dioxo-2-pyridin-4-ylmethyl-2,3-dihydro-1H-isoindol-4-yl)-piperidine-3-carboxylic acid 2-fluoro-benzylamide]"
0.912,186 to 187,"O=C(NCC1COCCO1)[C@@H]1CCCN(c2cccc3c2C(=O)N(Cc2ccncc2)C3=O)C1 (stereo partly drawn) [Compound I-14, (R)-1-(1,3-Dioxo-2-pyridin-4-ylmethyl-2,3-dihydro-1H-isoindol-4-yl)-piperidine-3-carboxylic acid ([1,4]dioxan-2-ylmethyl)-amide]"
0.537,,"C[C@H](CO)N1Cc2c(NC(=O)CC34CC5CC(CC(C5)C3)C4)c(Cl)cc(Cl)c2C1=O [Compound I-18b, 2-Adamantan-1-yl-N-[5,7-dichloro-2-((R)-2-hydroxy-1-methyl-ethyl)-1-oxo-2,3-dihydro-1H-isoindol-4-yl]-acetamide]"
0.331,151 to 152,"COCC(C)N1Cc2c(NC(=O)Cc3ccc(F)c(C(F)(F)F)c3)cccc2C1=O (centres unmarked) [Compound I-19, 2-(4-Fluoro-3-trifluoromethyl-phenyl)-N-[2-(2-methoxy-1-methyl-ethyl)-1-oxo-2,3-dihydro-1H-isoindol-4-yl]-acetamide]"
0.891,,"COCCN1Cc2c(ccc(Cl)c2NC(=O)Cc2ccc(F)c(C(F)(F)F)c2)C1=O [Compound I-20, N-[5-Chloro-2-(2-methoxy-ethyl)-1-oxo-2,3-dihydro-1H-isoindol-4-yl]-2-(4-fluoro-3-trifluoromethyl-phenyl)-acetamide]"

# Continued, compound first:
Compound,IC50 [1] [µM],melting point [°C]
"COc1ccccc1CNC(=O)[C@H]1CCCN(c2cccc3c2C(=O)N(Cc2ccncc2)C3=O)C1 [Compound I-2, (S)-1-(1,3-Dioxo-2-pyridin-4-ylmethyl-2,3-dihydro-1H-isoindol-4-yl)-piperidine-3-carboxylic acid 2-methoxy-benzylamide]",0.741,
"O=C(NCC12CC3CC(CC(C3)C1)C2)[C@@H]1CCCN(c2cccc3c2C(=O)N(Cc2ccncc2)C3=O)C1 [Compound I-3, (R)-1-(1,3-Dioxo-2-pyridin-4-ylmethyl-2,3-dihydro-1H-isoindol-4-yl)-piperidine-3-carboxylic acid (adamantan-1-ylmethyl)-amide]",0.107,
"COc1ccccc1CNC(=O)[C@@H]1CCCN(c2cccc3c2C(=O)N(Cc2cncs2)C3=O)C1 [Compound I-6, (R)-1-(1,3-Dioxo-2-thiazol-5-ylmethyl-2,3-dihydro-1H-isoindol-4-yl)-piperidine-3-carboxylic acid 2-methoxy-benzylamide]",0.417,
"O=C(NCc1cccs1)[C@@H]1CCCN(c2cccc3c2C(=O)N(Cc2ccncc2)C3=O)C1 [Compound I-8, (R)-1-(1,3-Dioxo-2-pyridin-4-ylmethyl-2,3-dihydro-1H-isoindol-4-yl)-piperidine-3-carboxylic acid (thiophen-2-ylmethyl)-amide]",0.437,193 to 194
"CCOc1ccccc1CNC(=O)[C@@H]1CCCN(c2cccc3c2C(=O)N(Cc2ccncc2)C3=O)C1 [Compound I-9, (R)-1-(1,3-Dioxo-2-pyridin-4-ylmethyl-2,3-dihydro-1H-isoindol-4-yl)-piperidine-3-carboxylic acid 2-ethoxy-benzylamide]",0.955,194 to 195
"O=C(NCC1CCCCC1)[C@@H]1CCCN(c2cccc3c2C(=O)N(Cc2ccncc2)C3=O)C1 [Compound I-15, (R)-1-(1,3-Dioxo-2-pyridin-4-ylmethyl-2,3-dihydro-1H-isoindol-4-yl)-piperidine-3-carboxylic acid cyclohexylmethyl-amide]",0.708,172 to 173
"CS(=O)(=O)c1ccccc1CNC(=O)[C@@H]1CCCN(c2cccc3c2C(=O)N(Cc2ccncc2)C3=O)C1 [Compound I-16, (R)-1-(1,3-Dioxo-2-pyridin-4-ylmethyl-2,3-dihydro-1H-isoindol-4-yl)-piperidine-3-carboxylic acid 2-methanesulfonyl-benzylamide]",0.204,101 to 102
"C[C@H](CO)N1Cc2c(ccc(Cl)c2NC(=O)Cc2ccc(F)c(C(F)(F)F)c2)C1=O [Compound I-17, N-[5-Chloro-2-((R)-2-hydroxy-1-methyl-ethyl)-1-oxo-2,3-dihydro-1H-isoindol-4-yl]-2-(4-fluoro-3-trifluoromethyl-phenyl)-acetamide]",0.174,
"C[C@H](CO)N1Cc2c(ccc(Cl)c2NC(=O)CC23CC4CC(CC(C4)C2)C3)C1=O [Compound I-18a, 2-Adamantan-1-yl-N-[5-chloro-2-((R)-2-hydroxy-1-methyl-ethyl)-1-oxo-2,3-dihydro-1H-isoindol-4-yl]-acetamide]",0.0398,
